# Results from patent US20240238423A9, “TETRAHYDROISOQUINOLINE HETEROBIFUNCTIONAL BCL-XL DEGRADERS” (Treeline Biosciences, Inc., priority 2022, published 2024).
# Read-outs that look alike come from different tables or passages of the source.
# Target: T1, Human BCL-XL protein (N-terminal HiBiT tagged BCL-XL in HT1080 cells) (Homo sapiens, UniProt Q07817)
# T1 construct: expressed in transfected cells; host or cells: HT-1080 (ATCC CCL-121), stably transduced with lentivirus pLV-UBC-N-HiBiT-BCL-XL-PGK-puro and selected with puromycin
# T1 sequence (Q07817 whole entry): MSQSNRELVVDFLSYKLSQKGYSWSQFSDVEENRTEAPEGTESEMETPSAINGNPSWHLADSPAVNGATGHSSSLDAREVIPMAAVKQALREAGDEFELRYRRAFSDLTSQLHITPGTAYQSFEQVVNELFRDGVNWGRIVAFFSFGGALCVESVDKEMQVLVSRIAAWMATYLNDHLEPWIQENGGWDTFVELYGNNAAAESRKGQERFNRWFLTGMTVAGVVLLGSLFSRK
# Test: HiBiT based degradation assay
# Format: cell-based
# Conditions: HT1080 cells expressing HiBiT-BCL-XL; for Ymin (24 h) / Ymin (6 h): BCL-XL degradation normalized with DMSO control; for DC50: BCL-XL degradation
# Outline: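 HT1080 cells stably transduced by lentivirus with N-terminally HiBiT-tagged human BCL-XL and kept under 1 μg/mL puromycin selection were seeded at three thousand cells per well in 40 μL RPMI 1640 into 384-well plates pre-spotted with compounds across a concentration range. Luminescence was read on a PHERAstar FSX, normalized to DMSO, and fitted with a four-parameter logistic model.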
Structure (SMILES),Ymin (24 h),"DC50 (24 h, read-out: EC50 (24 h)) [µM]",Ymin (6 h),"DC50 (6 h, read-out: EC50 (6 h)) [µM]"
"Cc1c(OCCC[C@H]2CCN(CC(=O)Nc3cccc4c(C5CCC(=O)NC5=O)nn(C)c34)C2)cccc1-c1ccc(N2CCc3cccc(C(=O)Nc4nc5ccccc5s4)c3C2)nc1C(=O)O (stereo partly drawn) [Compound 240b, 6-(8-(benzo[d]thiazol-2-ylcarbamoyl)-3,4-dihydroisoquinolin-2(1H)-yl)-3-(3-(3-((3S)-1-(2-((3-(2,6-dioxopiperidin-3-yl)-1-methyl-1H-indazol-7-yl)amino)-2-oxoethyl)pyrrolidin-3-yl)propoxy)-2-methylphenyl)picolinic acid]",B (50% ≤ Ymin < 70%),< 0.1,–,–
"Cc1c(Oc2ccc(CCN3CCN(c4cccc5c(C6CCC(=O)NC6=O)nn(C)c45)CC3)cc2)cccc1-c1ccc(N2CCc3cccc(C(=O)Nc4nc5ccccc5s4)c3C2)nc1C(=O)O (stereo not drawn) [Compound 241, 6-[8-(1,3-benzothiazol-2-ylcarbamoyl)-3,4-dihydro-1H-isoquinolin-2-yl]-3-[3-[4-[2-[4-[3-(2,6-dioxo-3-piperidyl)-1-methyl-indazol-7-yl]piperazin-1-yl]ethyl]phenoxy]-2-methyl-phenyl]pyridine-2-carboxylic acid]",B (50% ≤ Ymin < 70%),< 0.1,–,–
"Cc1cc(OCCCN2CCN(CC(=O)Nc3cccc4c(C5CCC(=O)NC5=O)nn(C)c34)CC2)ccc1-c1ccc(N2CCc3cccc(C(=O)Nc4nc5ccccc5s4)c3C2)nc1C(=O)O (stereo not drawn) [Compound 242, 6-[8-(1,3-benzothiazol-2-ylcarbamoyl)-3,4-dihydro-1H-isoquinolin-2-yl]-3-[4-[3-[4-[2-[[3-(2,6-dioxo-3-piperidyl)-1-methyl-indazol-7-yl]amino]-2-oxo-ethyl]piperazin-1-yl]propoxy]-2-methyl-phenyl]pyridine-2-carboxylic acid]",C (Ymin ≥ 70%),< 0.1,C (Ymin ≥ 70%),1 to 10
"Cc1c(Oc2ccccc2CCC(=O)Nc2cccc3c(C4CCC(=O)NC4=O)nn(C)c23)cccc1-c1ccc(N2CCc3cccc(C(=O)Nc4nc5ccccc5s4)c3C2)nc1C(=O)O (stereo not drawn) [Compound 243, 6-(8-(benzo[d]thiazol-2-ylcarbamoyl)-3,4-dihydroisoquinolin-2(1H)-yl)-3-(3-(2-(3-((3-(2,6-dioxopiperidin-3-yl)-1-methyl-1H-indazol-7-yl)amino)-3-oxopropyl)phenoxy)-2-methylphenyl)picolinic acid]",B (50% ≤ Ymin < 70%),< 0.1,C (Ymin ≥ 70%),0.1 to 1
"Cc1c(Oc2ccc(CCC(=O)N3CCN(c4ccc5c(C6CCC(=O)NC6=O)nn(C)c5c4)CC3)cc2)cccc1-c1ccc(N2CCc3cccc(C(=O)Nc4nc5ccccc5s4)c3C2)nc1C(=O)O (stereo not drawn) [Compound 244, 6-(8-(benzo[d]thiazol-2-ylcarbamoyl)-3,4-dihydroisoquinolin-2(1H)-yl)-3-(3-(4-(3-(4-(3-(2,6-dioxopiperidin-3-yl)-1-methyl-1H-indazol-6-yl)piperazin-1-yl)-3-oxopropyl)phenoxy)-2-methylphenyl)picolinic acid]",B (50% ≤ Ymin < 70%),< 0.1,C (Ymin ≥ 70%),1 to 10
"Cc1c(OCCCC2CCN(CC3CCN(c4ccc5c(C6CCC(=O)NC6=O)nn(C)c5c4)CC3)CC2)cccc1-c1ccc(N2CCc3cccc(C(=O)Nc4nc5ccccc5s4)c3C2)nc1C(=O)O (stereo not drawn) [Compound 247, 6-[8-(1,3-benzothiazol-2-ylcarbamoyl)-3,4-dihydro-1H-isoquinolin-2-yl]-3-[3-[3-[1-[[1-[3-(2,6-dioxo-3-piperidyl)-1-methyl-indazol-6-yl]-4-piperidyl]methyl]-4-piperidyl]propoxy]-2-methyl-phenyl]pyridine-2-carboxylic acid]",A (Ymin < 50%),< 0.1,–,–
"Cc1c(OCCC2CCN(CCN3CCC(c4ccc5c(C6CCC(=O)NC6=O)nn(C)c5c4)CC3)CC2)cccc1-c1ccc(N2CCc3cccc(C(=O)Nc4nc5ccccc5s4)c3C2)nc1C(=O)O (stereo not drawn) [Compound 248, 6-[8-(1,3-benzothiazol-2-ylcarbamoyl)-3,4-dihydro-1H-isoquinolin-2-yl]-3-[3-[2-[1-[2-[4-[3-(2,6-dioxo-3-piperidyl)-1-methyl-indazol-6-yl]-1-piperidyl]ethyl]-4-piperidyl]ethoxy]-2-methyl-phenyl]pyridine-2-carboxylic acid]",A (Ymin < 50%),< 0.1,–,–
"Cc1c(OCCC2CCN(CCN3CCC(c4cccc5c(C6CCC(=O)NC6=O)nn(C)c45)CC3)CC2)cccc1-c1ccc(N2CCc3cccc(C(=O)Nc4nc5ccccc5s4)c3C2)nc1C(=O)O (stereo not drawn) [Compound 249, 6-[8-(1,3-benzothiazol-2-ylcarbamoyl)-3,4-dihydro-1H-isoquinolin-2-yl]-3-[3-[2-[1-[2-[4-[3-(2,6-dioxo-3-piperidyl)-1-methyl-indazol-7-yl]-1-piperidyl]ethyl]-4-piperidyl]ethoxy]-2-methyl-phenyl] pyridine-2-carboxylic acid]",A (Ymin < 50%),< 0.1,–,–

# Results, then the compound that gave them:
Ymin (24 h),"DC50 (24 h, read-out: EC50 (24 h)) [µM]",Ymin (6 h),"DC50 (6 h, read-out: EC50 (6 h)) [µM]",Structure (SMILES)
B (50% ≤ Ymin < 70%),< 0.1,–,–,"Cc1c(OCCCN2CCN(CC(=O)Nc3ccc4c(C5CCC(=O)NC5=O)nn(C)c4c3)C[C@@H]2C(F)(F)F)cccc1-c1ccc(N2CCc3cccc(C(=O)Nc4nc5ccccc5s4)c3C2)nc1C(=O)O (stereo partly drawn) [Compound 245a, 6-(8-(benzo[d]thiazol-2-ylcarbamoyl)-3,4-dihydroisoquinolin-2(1H)-yl)-3-(3-(3-((2R)-4-(2-((3-(2,6-dioxopiperidin-3-yl)-1-methyl-1H-indazol-6-yl)amino)-2-oxoethyl)-2-(trifluoromethyl)piperazin-1-yl)propoxy)-2-methylphenyl)picolinic acid]"
B (50% ≤ Ymin < 70%),< 0.1,–,–,"Cc1c(OCCCN2CCN(CC(=O)Nc3ccc4c(C5CCC(=O)NC5=O)nn(C)c4c3)C[C@H]2C(F)(F)F)cccc1-c1ccc(N2CCc3cccc(C(=O)Nc4nc5ccccc5s4)c3C2)nc1C(=O)O (stereo partly drawn) [Compound 245b, 6-(8-(benzo[d]thiazol-2-ylcarbamoyl)-3,4-dihydroisoquinolin-2(1H)-yl)-3-(3-(3-((2S)-4-(2-((3-(2,6-dioxopiperidin-3-yl)-1-methyl-1H-indazol-6-yl)amino)-2-oxoethyl)-2-(trifluoromethyl)piperazin-1-yl)propoxy)-2-methylphenyl)picolinic acid]"
B (50% ≤ Ymin < 70%),< 0.1,–,–,"Cc1c(OCCCN2CCN(CC(=O)Nc3cccc4c(C5CCC(=O)NC5=O)nn(C)c34)C[C@@H]2C(F)(F)F)cccc1-c1ccc(N2CCc3cccc(C(=O)Nc4nc5ccccc5s4)c3C2)nc1C(=O)O (stereo partly drawn) [Compound 246a, 6-(8-(benzo[d]thiazol-2-ylcarbamoyl)-3,4-dihydroisoquinolin-2(1H)-yl)-3-(3-(3-((2R)-4-(2-((3-(2,6-dioxopiperidin-3-yl)-1-methyl-1H-indazol-7-yl)amino)-2-oxoethyl)-2-(trifluoromethyl)piperazin-1-yl)propoxy)-2-methylphenyl)picolinic acid]"
B (50% ≤ Ymin < 70%),< 0.1,–,–,"Cc1c(OCCCN2CCN(CC(=O)Nc3cccc4c(C5CCC(=O)NC5=O)nn(C)c34)C[C@H]2C(F)(F)F)cccc1-c1ccc(N2CCc3cccc(C(=O)Nc4nc5ccccc5s4)c3C2)nc1C(=O)O (stereo partly drawn) [Compound 246b, 6-(8-(benzo[d]thiazol-2-ylcarbamoyl)-3,4-dihydroisoquinolin-2(1H)-yl)-3-(3-(3-((2S)-4-(2-((3-(2,6-dioxopiperidin-3-yl)-1-methyl-1H-indazol-7-yl)amino)-2-oxoethyl)-2-(trifluoromethyl)piperazin-1-yl)propoxy)-2-methylphenyl)picolinic acid]"
A (Ymin < 50%),< 0.1,–,–,"Cc1cc(O[C@H]2CC[C@H](CCCN3CCN(c4cccc5c(C6CCC(=O)NC6=O)nn(C)c45)CC3)CC2)ccc1-c1ccc(N2CCc3cccc(C(=O)Nc4nc5ccccc5s4)c3C2)nc1C(=O)O (stereo partly drawn) [Compound 250a, 6-(8-(benzo[d]thiazol-2-ylcarbamoyl)-3,4-dihydroisoquinolin-2(1H)-yl)-3-(4-(((1s,4r)-4-(3-(4-(3-(2,6-dioxopiperidin-3-yl)-1-methyl-1H-indazol-7-yl)piperazin-1-yl)propyl)cyclohexyl)oxy)-2-methylphenyl)picolinic acid]"
A (Ymin < 50%),< 0.1,–,–,"Cc1cc(O[C@H]2CC[C@H](CCC(=O)N3CCN(c4ccc5c(C6CCC(=O)NC6=O)nn(C)c5c4)CC3)CC2)ccc1-c1ccc(N2CCc3cccc(C(=O)Nc4nc5ccccc5s4)c3C2)nc1C(=O)O (stereo partly drawn) [Compound 251a, 6-(8-(benzo[d]thiazol-2-ylcarbamoyl)-3,4-dihydroisoquinolin-2(1H)-yl)-3-(4-(((1r,4r)-4-(3-(4-(3-(2,6-dioxopiperidin-3-yl)-1-methyl-1H-indazol-6-yl)piperazin-1-yl)-3-oxopropyl)cyclohexyl)oxy)-2-methylphenyl)picolinic acid]"
A (Ymin < 50%),< 0.1,–,–,"Cc1cc(O[C@H]2CC[C@H](CCC(=O)N3CCN(c4cccc5c(C6CCC(=O)NC6=O)nn(C)c45)CC3)CC2)ccc1-c1ccc(N2CCc3cccc(C(=O)Nc4nc5ccccc5s4)c3C2)nc1C(=O)O (stereo partly drawn) [Compound 252a, 6-(8-(benzo[d]thiazol-2-ylcarbamoyl)-3,4-dihydroisoquinolin-2(1H)-yl)-3-(4-(((1r,4r)-4-(3-(4-(3-(2,6-dioxopiperidin-3-yl)-1-methyl-1H-indazol-7-yl)piperazin-1-yl)-3-oxopropyl)cyclohexyl)oxy)-2-methylphenyl)picolinic acid]"
